# Legend:
# Assay type in all cases: in vivo
# [1] = tested on: Surinam grass (Brachiaria decumbens); assay: Test B postemergence
# Excerpt: (§1) Seeds selected from barnyardgrass (Echinochloa crus-galli), Surinam grass (Brachiaria decumbens), cocklebur (Xanthium strumarium), corn (Zea mays), crabgrass (Digitaria sanguinalis), giant foxtail (Setaria faberii), lambsquarters (Chenopodium album), morning glory (Ipomoea hederacea), pigweed (Amaranthus retroflexus), rice (Oryza saliva) and velvetleaf (Abutilon theophrasti) were planted and treated preemergence with test chemicals formulated in a non-phytotoxic solvent mixture which included a surfactant.
# (§2) At the same time, plants selected from these crop and weed species and also blackgrass (Alopecurus myosuroides), wheat (Triticum aestivum) and wild oat (Avena fatua) were treated with postemergence applications of test chemicals formulated in the same manner. Plants ranged in height from 2 to 18 cm (1- to 4-leaf stage) for postemergence treatments. Plant species in the flooded paddy test consisted of rice (Oryza saliva), smallflower flatsedge (Cyperus difformis), duck salad (Heteranthera limosa) and barnyardgrass (Echinochloa crus-galli) grown to the 2-leaf stage for testing. Treated plants and controls were maintained in a greenhouse for 13 to 15 days, after which time all species were compared to controls and visually evaluated. Plant response ratings, summarized in Table B, are based on a scale of 0 to 100 where 0 is no effect and 100 is complete control. A dash (-) response means no test result.
# [2] = tested on: barnyardgrass (Echinochloa crus-galli); assay: Test B postemergence
# Excerpt: as §1, §2
# [3] = tested on: blackgrass (Alopecurus myosuroides); assay: Test B postemergence
# Excerpt: as §1, §2
# [4] = tested on: cocklebur (Xanthium strumarium); assay: Test B postemergence
# Excerpt: as §1, §2
# corn (Zea mays) [5] = assay: Test B postemergence
# Excerpt: as §1, §2
# [6] = tested on: crabgrass (Digitaria sanguinalis); assay: Test B postemergence
# Excerpt: as §1, §2
# [7] = tested on: giant foxtail (Setaria faberii); assay: Test B postemergence
# Excerpt: as §1, §2
# [8] = tested on: lambsquarters (Chenopodium album); assay: Test B postemergence
# Excerpt: as §1, §2
# [9] = tested on: morning glory (Ipomoea hederacea); assay: Test B postemergence
# Excerpt: as §1, §2
# [10] = tested on: pigweed (Amaranthus retroflexus); assay: Test B postemergence
# Excerpt: as §1, §2
# [11] = tested on: velvetleaf (Abutilon theophrasti); assay: Test B postemergence
# Excerpt: as §1, §2
# [12] = tested on: wheat (Triticum aestivum); assay: Test B postemergence
# Excerpt: as §1, §2
# wild oat (Avena fatua) = assay: Test B postemergence
# Excerpt: as §1, §2
# [13] = tested on: Surinam grass (Brachiaria decumbens); assay: Test B preemergence
# Excerpt: as §1, §2
# [14] = tested on: barnyardgrass (Echinochloa crus-galli); assay: Test B preemergence
# Excerpt: as §1, §2
# [15] = tested on: cocklebur (Xanthium strumarium); assay: Test B preemergence
# Excerpt: as §1, §2
# corn (Zea mays) [16] = assay: Test B preemergence
# Excerpt: as §1, §2
# [17] = tested on: crabgrass (Digitaria sanguinalis); assay: Test B preemergence
# Excerpt: as §1, §2
# [18] = tested on: giant foxtail (Setaria faberii); assay: Test B preemergence
# Excerpt: as §1, §2
# [19] = tested on: lambsquarters (Chenopodium album); assay: Test B preemergence
# Excerpt: as §1, §2
# [20] = tested on: morning glory (Ipomoea hederacea); assay: Test B preemergence
# Excerpt: as §1, §2
# [21] = tested on: pigweed (Amaranthus retroflexus); assay: Test B preemergence
# Excerpt: as §1, §2
# rice (Oryza saliva) [22] = assay: Test B preemergence
# Excerpt: as §1, §2
# [23] = tested on: velvetleaf (Abutilon theophrasti); assay: Test B preemergence
# Excerpt: as §1, §2
# [24] = tested on: barnyardgrass (Echinochloa crus-galli); assay: Test C flooded paddy test; details: for Barnyardgrass plant response rating: Flooded Paddy, scale 0 to 100, 0 no effect, 100 complete control; for Plant response rating, Barnyardgrass: scale 0 to 100 (0 no effect, 100 complete control)
# Procedure, shortened: (§3)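 2-leaf-stage plants, flooded paddy; treated; greenhouse 12–14 days; compared with controls by eye; rated 0–100 (0 none, 100 complete control).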
# [25] = tested on: duck salad (Heteranthera limosa); assay: Test C flooded paddy test; details: for Ducksalad plant response rating: Flooded Paddy, scale 0 to 100, 0 no effect, 100 complete control; for Plant response rating, Ducksalad: scale 0 to 100 (0 no effect, 100 complete control)
# Procedure, shortened: as §3
# rice (Oryza saliva) [26] = assay: Test C flooded paddy test; details: for Rice plant response rating: Flooded Paddy, scale 0 to 100, 0 no effect, 100 complete control; for Plant response rating, Rice: scale 0 to 100 (0 no effect, 100 complete control)
# Procedure, shortened: as §3
# [27] = tested on: smallflower flatsedge (Cyperus difformis); assay: Test C flooded paddy test; details: for Flatsedge plant response rating: Flooded Paddy, scale 0 to 100, 0 no effect, 100 complete control; for Plant response rating, Flatsedge: scale 0 to 100 (0 no effect, 100 complete control)
# Procedure, shortened: as §3
# [28] = Rate 125 g/ha, scale 0 to 100, 0 no effect, 100 complete control
# [29] = Rate 500 g/ha, scale 0 (no effect) to 100 (complete control), 13 to 15 days
# [30] = Preemergence, Rate 500 g/ha, scale 0 to 100, 0 no effect, 100 complete control
# [31] = preemergence, Rate 125 g/ha, scale of 0 to 100 where 0 is no effect and 100 is complete control, 13 to 15 days
# [32] = flooded paddy test, Rate 125 g/ha
# [33] = flooded paddy test, Rate 250 g/ha
# [34] = flooded paddy test, Rate 62 g/ha, visually evaluated after 12 to 14 days, 0 = no effect, 100 = complete control
# [35] = Rate 500 g/ha, scale 0 to 100, 0 is no effect, 100 is complete control, 13 to 15 days
# [36] = flooded paddy test, Rate 62 g/ha
compound,measurement,setting,value
CC(C)(C)c1ccn(C2CCN(c3ccc(F)c(C(F)(F)F)c3)C2=O)n1 (centres unmarked) [Compound 146],"Plant response rating, Surinam grass",[1]; [28],0
same,"Plant response rating, Surinam grass",[1]; [29],0
same,"Plant response rating, Barnyardgrass",[2]; [28],0
same,"Plant response rating, Barnyardgrass",[2]; [29],90
same,"Plant response rating, Blackgrass",[3]; [28],0
same,"Plant response rating, Blackgrass",[3]; [29],0
same,"Plant response rating, Cocklebur",[4]; [28],0
same,"Plant response rating, Cocklebur",[4]; [29],0
same,"Plant response rating, Corn",corn (Zea mays) [5]; [28],0
same,"Plant response rating, Corn",corn (Zea mays) [5]; [29],0
same,"Plant response rating, Crabgrass",[6]; [28],0
same,"Plant response rating, Crabgrass",[6]; [29],60
same,"Plant response rating, Foxtail, Giant",[7]; [28],0
same,"Plant response rating, Foxtail, Giant",[7]; [29],70
same,"Plant response rating, Lambsquarters",[8]; [28],80
same,"Plant response rating, Lambsquarters",[8]; [29],100
same,"Plant response rating, Morningglory",[9]; [28],0
same,"Plant response rating, Morningglory",[9]; [29],0
same,"Plant response rating, Pigweed",[10]; [28],0
same,"Plant response rating, Pigweed",[10]; [29],70
same,"Plant response rating, Velvetleaf",[11]; [28],0
same,"Plant response rating, Velvetleaf",[11]; [29],0
same,"Plant response rating, Wheat",[12]; [28],0
same,"Plant response rating, Wheat",[12]; [29],0
same,"Plant response rating, Wild Oat",wild oat (Avena fatua); [28],0
same,"Plant response rating, Wild Oat",wild oat (Avena fatua); [29],0
same,"Plant response rating, Surinam grass",[13]; [30],100
same,"Plant response rating, Surinam grass",[13]; [31],40
same,"Plant response rating, Barnyardgrass",[14]; [30],100
same,"Plant response rating, Barnyardgrass",[14]; [31],90
same,"Plant response rating, Cocklebur",[15]; [30],0
same,"Plant response rating, Cocklebur",[15]; [31],0
same,"Plant response rating, Corn",corn (Zea mays) [16]; [30],0
same,"Plant response rating, Corn",corn (Zea mays) [16]; [31],0
same,"Plant response rating, Crabgrass",[17]; [30],100
same,"Plant response rating, Crabgrass",[17]; [31],100
same,"Plant response rating, Foxtail, Giant",[18]; [30],100
same,"Plant response rating, Foxtail, Giant",[18]; [31],100
same,"Plant response rating, Lambsquarters",[19]; [30],100
same,"Plant response rating, Lambsquarters",[19]; [31],100
same,"Plant response rating, Morningglory",[20]; [30],40
same,"Plant response rating, Morningglory",[20]; [31],0
same,"Plant response rating, Pigweed",[21]; [30],100
same,"Plant response rating, Pigweed",[21]; [31],100
same,"Plant response rating, Rice",rice (Oryza saliva) [22]; [30],0
same,"Plant response rating, Rice",rice (Oryza saliva) [22]; [31],0
same,"Plant response rating, Velvetleaf",[23]; [30],20
same,"Plant response rating, Velvetleaf",[23]; [31],0
same,Barnyardgrass plant response rating,[24]; Rate 500 g/ha,100
same,"Plant response rating, Barnyardgrass",[24]; [32],100
same,"Plant response rating, Barnyardgrass",[24]; [33],100
same,"Plant response rating (scale 0 to 100), Barnyardgrass",[24]; [34],75
same,Ducksalad plant response rating,[25]; Rate 500 g/ha,90
same,"Plant response rating, Ducksalad",[25]; [32],65
same,"Plant response rating, Ducksalad",[25]; [33],80
same,"Plant response rating (scale 0 to 100), Ducksalad",[25]; [34],40
same,Rice plant response rating,rice (Oryza saliva) [26]; Rate 500 g/ha,85
same,"Plant response rating, Rice",rice (Oryza saliva) [26]; [32],50
same,"Plant response rating, Rice",rice (Oryza saliva) [26]; [33],50
same,"Plant response rating (scale 0 to 100), Rice",rice (Oryza saliva) [26]; [34],15
same,Flatsedge plant response rating,[27]; Rate 500 g/ha,95
same,"Plant response rating, Flatsedge",[27]; [32],95
same,"Plant response rating, Flatsedge",[27]; [33],95
same,"Plant response rating (scale 0 to 100), Flatsedge",[27]; [34],60
CCCOC(=O)c1cccc(N2CCC(n3ccc(C(C)(C)C)n3)C2=O)c1 (centres unmarked) [Compound 123],"Plant response rating, Surinam grass",[1]; [28],0
same,"Plant response rating, Surinam grass",[1]; [35],0
same,"Plant response rating, Barnyardgrass",[2]; [28],0
same,"Plant response rating, Barnyardgrass",[2]; [35],0
same,"Plant response rating, Blackgrass",[3]; [35],0
same,"Plant response rating, Cocklebur",[4]; [28],30
same,"Plant response rating, Cocklebur",[4]; [35],80
same,"Plant response rating, Corn",corn (Zea mays) [5]; [28],0
same,"Plant response rating, Corn",corn (Zea mays) [5]; [35],0
same,"Plant response rating, Crabgrass",[6]; [28],0
same,"Plant response rating, Foxtail, Giant",[7]; [28],0
same,"Plant response rating, Lambsquarters",[8]; [28],0
same,"Plant response rating, Morningglory",[9]; [28],0
same,"Plant response rating, Pigweed",[10]; [28],0
same,"Plant response rating, Velvetleaf",[11]; [28],0
same,"Plant response rating, Wheat",[12]; [28],0
same,"Plant response rating, Wild Oat",wild oat (Avena fatua); [28],0
same,"Plant response rating, Surinam grass",[13]; [30],0
same,"Plant response rating, Surinam grass",[13]; [31],0
same,"Plant response rating, Barnyardgrass",[14]; [30],0
same,"Plant response rating, Barnyardgrass",[14]; [31],0
same,"Plant response rating, Cocklebur",[15]; [30],0
same,"Plant response rating, Cocklebur",[15]; [31],0
same,"Plant response rating, Corn",corn (Zea mays) [16]; [30],0
same,"Plant response rating, Corn",corn (Zea mays) [16]; [31],0
same,"Plant response rating, Crabgrass",[17]; [30],60
same,"Plant response rating, Crabgrass",[17]; [31],0
same,"Plant response rating, Foxtail, Giant",[18]; [30],0
same,"Plant response rating, Foxtail, Giant",[18]; [31],0
same,"Plant response rating, Lambsquarters",[19]; [30],60
same,"Plant response rating, Lambsquarters",[19]; [31],0
same,"Plant response rating, Morningglory",[20]; [30],0
same,"Plant response rating, Morningglory",[20]; [31],0
same,"Plant response rating, Pigweed",[21]; [30],70
same,"Plant response rating, Pigweed",[21]; [31],0
same,"Plant response rating, Rice",rice (Oryza saliva) [22]; [30],0
same,"Plant response rating, Rice",rice (Oryza saliva) [22]; [31],0
same,"Plant response rating, Velvetleaf",[23]; [30],0
same,"Plant response rating, Velvetleaf",[23]; [31],0
same,Barnyardgrass plant response rating,[24]; Rate 250 g/ha,0
same,Barnyardgrass plant response rating,[24]; Rate 500 g/ha,0
same,"Plant response rating, Barnyardgrass",[24]; [36],0
same,"Plant response rating, Barnyardgrass",[24]; [32],0
same,Ducksalad plant response rating,[25]; Rate 250 g/ha,60
same,Ducksalad plant response rating,[25]; Rate 500 g/ha,70
same,"Plant response rating, Ducksalad",[25]; [36],20
same,"Plant response rating, Ducksalad",[25]; [32],20
same,Rice plant response rating,rice (Oryza saliva) [26]; Rate 250 g/ha,0
same,Rice plant response rating,rice (Oryza saliva) [26]; Rate 500 g/ha,0
same,"Plant response rating, Rice",rice (Oryza saliva) [26]; [36],0
same,"Plant response rating, Rice",rice (Oryza saliva) [26]; [32],0
same,Flatsedge plant response rating,[27]; Rate 250 g/ha,50
same,Flatsedge plant response rating,[27]; Rate 500 g/ha,90
same,"Plant response rating, Flatsedge",[27]; [36],30
same,"Plant response rating, Flatsedge",[27]; [32],30

# Source: patent US7138361B2, “Herbicidal heterocycles” (E. I. du Pont de Nemours and Company, priority 2000, dated 2006)
